Measured values published in US12037340B2, “Pentacyclic derivatives as Zika virus inhibitors” (Gilead Sciences, Inc., priority 2021, dated 2024).

system: ZIKV; experiment: microbe, parasite or virus in culture; format: cell-based, Zika virus; conditions: 48 hrs

Q: `COC[C@H]1C[C@@H](c2nc(Cl)c(-c3ccc4c(c3)COc3cc5c(ccc6nc([C@@H]7CC[C@H](C)N7C(=O)[C@@H](NC(=O)OC)C(C)C)[nH]c65)cc3-4)[nH]2)N(C(=O)[C@@H](NC(=O)OC)C(C)(C)C(F)(F)F)C1` [Compound 20, methyl ((S)-1-((2S,5S)-2-(9-(4-chloro-2-((2S,4S)-4-(methoxymethyl)-1-((S)-4,4,4-trilluoro-2-((methoxycarbonyl)amino)-3,3-dimethylbutanoyl)pyrrolidin-2-yl)-1H-imidazol-5-yl)-1,11-dihydroisochromeno[4′,3′:6,7]naphtho[1,2-d]imidazol-2-yl)-5-methylpyrrolidin-1-yl)-3-methyl-1-oxobutan-2-yl)carbamate] was tested. Which EC50 did it give?
A: 5.4 nM

Q: How did the EC50 turn out when `COC(=O)N[C@H](C(=O)N1CCC[C@H]1c1nc(Cl)c(-c2ccc3c(c2)COc2cc4c(ccc5nc([C@@H]6CCCN6C(=O)[C@@H](NC(=O)OC)C(C)(C)C(F)(F)F)[nH]c54)cc2-3)[nH]1)C(C)(C)C(F)(F)F` [Compound 29, methyl ((S)-1-((S)-2-(4-chloro-5-(2-((S)-1-((S)-4,4,4-trifluoro-2-((methoxycarbonyl)amino)-3,3-dimethylbutanoyl)pyrrolidin-2-yl)-1,11-dihydroisochromeno[4′,3′:6,7]naphtho[1,2-d]imidazol-9-yl)-1H-imidazol-2-yl)pyrrolidin-l-yl)-4,4,4-trifluoro-3,3-dimethyl-1-oxobutan-2-yl)carbamate] was run?
A: 11.4 nM

same assay, conditions: Zika virus, Huh-7; 48 hrs

Q: `CC[C@H](C)[C@H](NC(=O)OC)C(=O)N1C[C@@H](COC)C[C@H]1c1nc(Br)c(-c2ccc3c(c2)COc2cc4c(ccc5nc([C@@H]6CC[C@H](C)N6C(=O)[C@@H](NC(=O)OC)C(C)C)[nH]c54)cc2-3)[nH]1` [Compound 17, methyl ((S)-1-((2S,5S)-2-(9-(4-bromo-2-((2S,4S)-1-((methoxycarbonyl)-L-isoleucyl)-4-(methoxymethyl)pyrrolidin-2-yl)-1H-imidazol-5-yl)-1,11-dihydroisochromeno[4′,3′:6,7]naphtho[1,2-d]imidazol-2-yl)-5-methylpyrrolidin-1-yl)-3-methyl-1-oxobutan-2-yl)carbamate] was tested. Which EC50 did it give?
A: 15.6 nM

Q: How did the EC50 turn out when `CC[C@H](C)[C@H](NC(=O)OC)C(=O)N1C[C@@H](COC)C[C@H]1c1nc(C2CC2)c(-c2ccc3c(c2)COc2cc4c(ccc5nc([C@@H]6CC[C@H](C)N6C(=O)[C@@H](NC(=O)OC)C(C)C)[nH]c54)cc2-3)[nH]1` [Compound 18, methyl ((S)-1-((2S,5S)-2-(9-(4-cyclopropyl-2-((2S,4S)-1-((methoxycarbonyl)-L-isoleucyl)-4-(methoxymethyl)pyrrolidin-2-yl)-1H-imidazol-5-yl)-1,11-dihydroisochromeno[4′,3′:6,7]naphtho[1,2-d]imidazol-2-yl)-5-methylpyrrolidin-1-yl)-3-methyl-1-oxobutan-2-yl)carbamate] was run?
A: 7.7 nM

Q: Which EC50 does the source give for `CC[C@@H](C)[C@H](NC(=O)OC)C(=O)N1C[C@@H](COC)C[C@H]1c1nc(Cl)c(-c2ccc3c(c2)COc2cc4c(ccc5nc([C@@H]6CC[C@H](C)N6C(=O)[C@@H](NC(=O)OC)C(C)C)[nH]c54)cc2-3)[nH]1` [Compound 19, methyl ((S)-1-((2S,5S)-2-(9-(4-chloro-2-((2S,4S)-1-((methoxycarbonyl)-L-alloisoleucyl)-4-(methoxymethyl)pyrrolidin-2-yl)-1H-imidazol-5-yl)-1,11-dihydroisochromeno[4′,3′:6,7]naphtho[1,2-d]imidazol-2-yl)-5-methylpyrrolidin-1-yl)-3-methyl-1-oxobutan-2-yl)carbamate] here?
A: 16.4 nM

Q: Which EC50 does the source give for `COC(=O)N[C@H](C(=O)N1[C@@H](C)CC[C@H]1c1nc(Cl)c(-c2ccc3c(c2)COc2cc4c(ccc5nc([C@@H]6CC[C@H](C)N6C(=O)[C@@H](NC(=O)OC)C(C)C)[nH]c54)cc2-3)[nH]1)C(C)C` [Compound 21, methyl ((S)-1-((2S,5S)-2-(4-chloro-5-(2-((2S,5S)-1-((methoxycarbonyl)-L-valyl)-5-methylpyrrolidin-2-yl)-1,11-dihydroisochromeno[4′,3′:6,7]naphtho[1,2-d]imidazol-9-yl)-1H-imidazol-2-yl)-5-methylpyrrolidin-1-yl)-3-methyl-1-oxobutan-2-yl)carbamate] here?
A: 18.9 nM

Q: `CC[C@H](C)[C@H](NC(=O)OC)C(=O)N1[C@@H](C)CC[C@H]1c1nc(Cl)c(-c2ccc3c(c2)COc2cc4c(ccc5nc([C@@H]6CC[C@H](C)N6C(=O)[C@@H](NC(=O)OC)[C@@H](C)CC)[nH]c54)cc2-3)[nH]1` [Compound 22, methyl ((2S,3S)-1-((2S,5S)-2-(4-chloro-5-(2-((2S,5S)-1-((methoxycarbonyl)-L-isoleucyl)-5-methylpyrrolidin-2-yl)-1,11-dihydroisochromeno[4′,3′:6,7]naphtho[1,2-d]imidazol-9-yl)-1H-imidazol-2-yl)-5-methylpyrrolidin-1-yl)-3-methyl-1-oxopentan-2-yl)carbamate] was tested. Which EC50 did it give?
A: 10.8 nM

Q: For `COC(=O)N[C@H](C(=O)N1[C@@H](C)CC[C@H]1c1nc(Cl)c(-c2ccc3c(c2)COc2cc4c(ccc5nc([C@@H]6CC[C@H](C)N6C(=O)[C@@H](NC(=O)OC)C(C)(C)C)[nH]c54)cc2-3)[nH]1)C(C)(C)C` [Compound 23, methyl ((S)-1-((2S,5S)-2-(4-chloro-5-(2-((2S,5S)-1-((S)-2-((methoxycarbonyl)amino)-3,3-dimethylbutanoyl)-5-methylpyrrolidin-2-yl)-1,11-dihydroisochromeno[4′,3′:6,7]naphtho[1,2-d]imidazol-9-yl)-1H-imidazol-2-yl)-5-methylpyrrolidin-1-yl)-3,3-dimethyl-1-oxobutan-2-yl)carbamate], which EC50 is on record?
A: 9.4 nM

Q: How did the EC50 turn out when `COC(=O)N[C@H](C(=O)N1[C@@H](C)CC[C@H]1c1nc(Cl)c(-c2ccc3c(c2)COc2cc4c(ccc5nc([C@@H]6CC[C@H](C)N6C(=O)[C@@H](NC(=O)OC)C(C)(C)C(F)(F)F)[nH]c54)cc2-3)[nH]1)C(C)(C)C(F)(F)F` [Compound 24, methyl ((S)-1-((2S,5S)-2-(4-chloro-5-(2-((2S,5S)-5-methyl-1-((S)-4,4,4-trifluoro-2-((methoxycarbonyl)amino)-3,3-dimethylbutanoyl)pyrrolidin-2-yl)-1,11-dihydroisochromeno[4′,3′:6,7]naphtho[1,2-d]imidazol-9-yl)-1H-imidazol-2-yl)-5-methylpyrrolidin-1-yl)-4,4,4-trifluoro-3,3-dimethyl-1-oxobutan-2-yl)carbamate] was run?
A: 4.2 nM

Q: For `CC[C@@H](C)[C@H](NC(=O)OC)C(=O)N1[C@@H](C)CC[C@H]1c1nc(Cl)c(-c2ccc3c(c2)COc2cc4c(ccc5nc([C@@H]6CC[C@H](C)N6C(=O)[C@@H](NC(=O)OC)[C@H](C)CC)[nH]c54)cc2-3)[nH]1` [Compound 25, methyl ((2S,3R)-1-((2S,5S)-2-(4-chloro-5-(2-((2S,5S)-1-((methoxycarbonyl)-L-alloisoleucyl)-5-methylpyrrolidin-2-yl)-1,11-dihydroisochromeno[4′,3′:6,7]naphtho[1,2-d]imidazol-9-yl)-1H-imidazol-2-yl)-5-methylpyrrolidin-1-yl)-3-methyl-1-oxopentan-2-yl)carbamate], which EC50 is on record?
A: 8.3 nM

Q: `COC(=O)N[C@H](C(=O)N1CCC[C@H]1c1nc(Cl)c(-c2ccc3c(c2)COc2cc4c(ccc5nc([C@@H]6CCCN6C(=O)[C@@H](NC(=O)OC)C(C)C)[nH]c54)cc2-3)[nH]1)C(C)C` [Compound 26, methyl ((S)-1-((S)-2-(4-chloro-5-(2-((S)-1-((methoxycarbonyl)-L-valyl)pyrrolidin-2-yl)-1,11-dihydroisochromeno[4′,3′:6,7]naphtho[1,2-d]imidazol-9-yl)-1H-imidazol-2-yl)pyrrolidin-1-yl)-3-methyl-1-oxobutan-2-yl)carbamate] was tested. Which EC50 did it give?
A: 85.4 nM

Q: With `CC[C@H](C)[C@H](NC(=O)OC)C(=O)N1CCC[C@H]1c1nc(Cl)c(-c2ccc3c(c2)COc2cc4c(ccc5nc([C@@H]6CCCN6C(=O)[C@@H](NC(=O)OC)[C@@H](C)CC)[nH]c54)cc2-3)[nH]1` [Compound 27, methyl ((2S,3S)-1-((S)-2-(4-chloro-5-(2-((S)-1-((methoxycarbonyl)-L-isoleucyl)pyrrolidin-2-yl)-1,11-dihydroisochromeno[4′,3′:6,7]naphtho[1,2-d]imidazol-9-yl)-1H-imidazol-2-yl)pyrrolidin-1-yl)-3-methyl-1-oxopentan-2-yl)carbamate] as the compound, how does the EC50 read?
A: 15.3 nM

Q: `CC[C@@H](C)[C@H](NC(=O)OC)C(=O)N1CCC[C@H]1c1nc(Cl)c(-c2ccc3c(c2)COc2cc4c(ccc5nc([C@@H]6CCCN6C(=O)[C@@H](NC(=O)OC)[C@H](C)CC)[nH]c54)cc2-3)[nH]1` [Compound 28, methyl ((2S,3R)-1-((S)-2-(4-chloro-5-(2-((S)-1-((methoxycarbonyl)-L-alloisoleucyl)pyrrolidin-2-yl)-1,11-dihydroisochromeno[4′,3′:6,7]naphtho[1,2-d]imidazol-9-yl)-1H-imidazol-2-yl)pyrrolidin-1-yl)-3-methyl-1-oxopentan-2-yl)carbamate] was tested. Which EC50 did it give?
A: 31.5 nM

Q: For `COC(=O)N[C@H](C(=O)N1CCC[C@H]1c1nc(Cl)c(-c2ccc3c(c2)COc2cc4c(ccc5nc([C@@H]6CCCN6C(=O)[C@@H](NC(=O)OC)C(C)(C)C)[nH]c54)cc2-3)[nH]1)C(C)(C)C` [Compound 30, methyl ((S)-1-((S)-2-(4-chloro-5-(2-((S)-1-((S)-2-((methoxycarbonyl)amino)-3,3-dimethylbutanoyl)pyrrolidin-2-yl)-1,11-dihydroisochromeno[4′,3′:6,7]naphtho[1,2-d]imidazol-9-yl)-1H-imidazol-2-yl)pyrrolidin-1-yl)-3,3-dimethyl-1-oxobutan-2-yl)carbamate], which EC50 is on record?
A: 44.7 nM

Q: Which EC50 does the source give for `COC(=O)N[C@H](C(=O)N1[C@@H](C)CC[C@H]1c1nc(Br)c(-c2ccc3c(c2)COc2cc4c(ccc5nc([C@@H]6CC[C@H](C)N6C(=O)[C@@H](NC(=O)OC)C(C)C)[nH]c54)cc2-3)[nH]1)C(C)C` [Compound 31, methyl ((S)-1-((2S,5S)-2-(4-bromo-5-(2-((2S,5S)-1-((methoxycarbonyl)-L-valyl)-5-methylpyrrolidin-2-yl)-1,11-dihydroisochromeno[4′,3′:6,7]naphtho[1,2-d]imidazol-9-yl)-1H-imidazol-2-yl)-5-methylpyrrolidin-1-yl)-3-methyl-1-oxobutan-2-yl)carbamate] here?
A: 8.5 nM
